In patent EP4782453A1 (Beyang Therapeutics Co., Ltd., priority 2023, dated 2025):
Read-outs that look alike come from different tables or passages of the source.

Tests used:
Menin-MLL = target: T1, Menin-MLL (Homo sapiens, UniProt O00255); experiment: Inhibitory activity against Menin-MLL binding (fluorescence polarization); settings: 150 nM His-Menin, 15 nM FITC-MLL, 25°C for 60 min
T1 construct: His-Menin (M1-L615 end); purchased BIORTUS BP9210
T1 sequence (O00255 1-615 isoform O00255-1): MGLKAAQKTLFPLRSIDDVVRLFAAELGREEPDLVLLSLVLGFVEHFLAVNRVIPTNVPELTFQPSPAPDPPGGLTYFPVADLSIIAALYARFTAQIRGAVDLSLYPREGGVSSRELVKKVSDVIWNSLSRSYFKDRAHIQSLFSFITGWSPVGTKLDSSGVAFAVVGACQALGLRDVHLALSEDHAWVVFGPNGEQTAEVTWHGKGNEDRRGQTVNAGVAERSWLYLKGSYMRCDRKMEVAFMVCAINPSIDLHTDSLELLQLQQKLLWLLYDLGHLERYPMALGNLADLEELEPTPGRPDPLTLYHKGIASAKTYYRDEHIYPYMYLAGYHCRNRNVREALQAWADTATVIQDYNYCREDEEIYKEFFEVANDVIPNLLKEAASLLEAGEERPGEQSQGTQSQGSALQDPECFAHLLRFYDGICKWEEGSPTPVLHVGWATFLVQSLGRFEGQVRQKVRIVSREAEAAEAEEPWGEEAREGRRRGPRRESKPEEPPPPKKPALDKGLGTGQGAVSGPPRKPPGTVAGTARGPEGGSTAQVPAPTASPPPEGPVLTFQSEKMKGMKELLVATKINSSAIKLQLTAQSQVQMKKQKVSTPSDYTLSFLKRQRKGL
Summary of the method: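 His-Menin (M1-L615, 150 nM) preincubated with compound 15 min at 25 °C in HEPES pH 7.5, 50 mM NaCl, 1 mM DTT, 0.01% BSA, then 15 nM FITC-MLL4-43 peptide added for 60 min at 25 °C. Fluorescence polarization read; IC50 from 4-parameter logistic fit, duplicates.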

[1] = tested on: MOLM-13 (carrying MLL-AF9); experiment: Inhibition of proliferation of human tumor cells (Alamar Blue, 7 days), MOLM-13; assay type: cell-based; settings: Homo sapiens, MOLM-13 cells (carrying MLL-AF9), method calls the value GI50
Summary of the method: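 Seven-day continuous compound exposure in duplicate wells, with 0.1% DMSO vehicle. Proliferation is quantified by Alamar Blue fluorescence and expressed as GI50, using Day 0 readings as the low reference.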

[2] = fluorescence polarization, read-out: Menin-MLL IC50
[3] = Menin-MLL IC50, fluorescence polarization

Structure (SMILES)	IC50 (Menin-MLL; [2]) [nM]	IC50 ([1]; 168 h) [nM]	IC50 (Menin-MLL; [3]) [nM]	IC50 ([1]; MOLM-13, 168 h) [nM]
CCN(C(=O)c1cc(F)ccc1-c1cc(C2CN([C@H](CCCN3CCO[C@H](CO)C3)C(C)C)C2)cn2c(C)ncc12)C(C)C [Example 450]	5.2	21		
CCN(C(=O)c1cc(F)ccc1-c1cc(C2CN([C@H](CCCN3CCO[C@@H](CO)C3)C(C)C)C2)cn2c(C)ncc12)C(C)C [Example 451]	4.7	25		
CCN(C(=O)c1cc(F)ccc1-c1cc(C2CN([C@H](CCCN3CCOC[C@@H]3CO)C(C)C)C2)cn2c(C)ncc12)C(C)C [Example 452]	5.3	39		
CCN(C(=O)c1cc(F)ccc1-c1cc(C2CN([C@H](CCCN3CCOC[C@H]3CO)C(C)C)C2)cn2c(C)ncc12)C(C)C [Example 453]	5.3	22		
CCN(C(=O)c1cc(F)ccc1-c1cc(C2CN(C(CCO)C(C)C)C2)cn2c(C)ncc12)C(C)C (centres unmarked) [Example 455, N-ethyl-5-fluoro-2-{6-[1-(1-hydroxyl-4-methylpentan-3-yl)azacyclobutan-3-yl]-3-methylimidazo[1,5-a]pyridin-8-yl}-N-(isopropyl)benzamide]	9.4	69		
CCN(C(=O)c1cc(F)ccc1-c1cc(C2CN([C@H](CC[C@H]3COCCN3)C(C)C)C2)cn2c(C)ncc12)C(C)C [Example 457-2, N-ethyl-5-fluoro-2-(3-methyl-6-{1-[(3R)-4-methyl-1-[(3S)-morpholin-3-yl]pentan-3-yl]azacyclobutan-3-yl}imidazo[1,5-a]pyridin-8-yl)-N-(isopropyl)benzamide]	2.6	5		
CCN(C(=O)c1cc(F)ccc1-c1cc(C2CN(C(CC[C@@H]3COCCN3)C(C)C)C2)cc2c1cnn2C)C(C)C (stereo partly drawn) [Example 458, N-ethyl-5-fluoro-2-[1-methyl-6-(1-{4-methyl-1-[(3R)-morpholin-3-yl]pentan-3-yl}azacyclobutan-3-yl}-1H-indazol-4-yl)-N-(isopropyl)benzamide]	6.4	31		
Cc1ncc2c(-c3ccc(F)cc3C(=O)N(CC(F)F)C(C)C)cc(C3CN([C@H](CCCN4CCN(CCO)CC4)C(C)C)C3)cn12 [Example 459-1, N-(2,2-difluoroethyl)-5-fluoro-2-(6-{1-[(3R)-6-[4-(2-hydroxylethyl)piperazin-1-yl]-2-methylhexan-3-yl]azacyclobutan-3-yl}-3-methyl-imidazo[1,5-a]pyridin-8-yl)-N-(isopropyl)benzamide]	1.9	4.7		
Cc1ncc2c(-c3ccc(F)cc3C(=O)N(C(C)C)C(C)C)cc(C3CN([C@H](CCCN4CCN(CCO)CC4)C(C)C)C3)cn12 [Example 463, 5-fluoro-2-(6-{1-[(3R)-6-[4-(2-hydroxylethyl)piperazin-1-yl]-2-methylhexan-3-yl]azacyclobutan-3-yl}-3-methyl-imidazo[1,5-a]pyridin-8-yl)-N,N-di(isopropyl)benzamide]	2.3	4.3		
COCCN(C(=O)c1cc(F)ccc1-c1cc(C2CN([C@H](CCCN3C[C@H]4C[C@@H]3CO4)C(C)C)C2)cn2c(C)ncc12)C(C)C [Example 467-1, 5-fluoro-N-(2-methoxyethyl)-2-(3-methyl-6-{1-[(3R)-2-methyl-6-[(1R,4R)-2-oxa-5-azadicyclo[2.2.1]heptan-5-yl]hexan-3-yl]azacyclobutan-3-yl}imidazo[1,5-a]pyridin-8-yl)-N-(isopropyl)benzamide]			1.5	23
CCN(C(=O)c1cc(F)ccc1-c1cc(CC2CN([C@H](CCCN3CCN(CCO)CC3)C(C)C)C2)n2c(C)cncc12)C(C)C [Example 470, N-ethyl-5-fluoro-2-[6-({1-[(3R)-6-[4-(2-hydroxylethyl)piperazin-1-yl]-2-methylhexan-3-yl]azacyclobutan-3-yl}methyl)-4-methylpyrrolo[1,2-a]pyrazin-8-yl]-N-(isopropyl)benzamide]	0.9	3.8		
CCN(C(=O)c1cc(F)ccc1-c1cc(C2CN([C@H](CCCN3CCNCC3)C(C)C)C2)cn2c(C)ncc12)C(C)C [Example 472]	1.5	24		
CCN(C(=O)c1cc(F)ccc1-c1cc(C2CN([C@H](CCCN3CCN(CC(=O)N(C)C)CC3)C(C)C)C2)cn2c(C)ncc12)C(C)C [Example 473]	1.1	16		
CCN(C(=O)c1cc(F)ccc1-c1cc(C2CN([C@H](CCCN3CCN(C4(CO)COC4)CC3)C(C)C)C2)cn2c(C)ncc12)C(C)C [Example 474, N-ethyl-5-fluoro-2-(6-{1-[(3R)-6-{4-[3-(hydroxymethyl)oxacyclobutan-3-yl]piperazin-1-yl}-2-methylhexan-3-yl]azacyclobutan-3yl}-3-methylimidazo[1,5-a]pyridin-8-yl)-N-(isopropyl)benzamide]			0.9	11
CCN(C(=O)c1cc(F)ccc1-c1cc(C2CN([C@H](CCCN3CCN(C4(C(N)=O)COC4)CC3)C(C)C)C2)cn2c(C)ncc12)C(C)C [Example 475, 3-{4-[(4R)-4-[3-(8-{2-[ethyl(isopropyl)aminoformyl]-4-fluorophenyl}-3-methylimidazo[1,5-a]pyridin-6-yl)azacyclobutan-1-yl]-5-methylhexyl]piperazin-1-yl}oxacyclobutan-3-formamide]	1	25		
Cc1cncc2c(-c3ccc(F)cc3C(=O)N(C)C(C)C)cc(CC3CN([C@H](CCCN4CCN(CCO)CC4)C(C)C)C3)n12 [Example 477-1, 5-fluoro-2-[6-({1-[(3R)-6-[4-(2-hydroxylethyl)piperazin-1-yl]-2-methylhexan-3-yl]azacyclobutan-3-yl}methyl)-4-methylpyrrolo[1,2-a]pyrazin-8-yl]-N-methyl-N-(isopropyl)benzamide]	1.1	10		
CCN(C(=O)c1cc(F)ccc1-c1cc(C2CN([C@H](CCCN3CCC(C#N)(CO)CC3)C(C)C)C2)cn2c(C)ncc12)C(C)C [Example 481]			1.9	5.5
CCN(C(=O)c1cc(F)ccc1-c1cc(C2CN([C@H](CCCN3CCN(CCO)CC34COC4)C(C)C)C2)cn2c(C)ncc12)C(C)C [Example 482, N-ethyl-5-fluoro-2-(6-{1-[(3R)-6-[8-(2-hydroxyethyl)-2-oxa-5,8-diazaspiro[3.5]non-5-yl]-2-methylhexan-3-yl]azacyclobutan-3-yl}-3-methylimidazo[1,5-a]pyridin-8-yl)-N-(isopropyl)benzamide]	2.4	36		
CCN(C(=O)c1cc(F)ccc1-c1cc(OC2CN(C(CCCN3CCN(CCO)CC3)C(C)C)C2)n2c(C)cncc12)C(C)C (centres unmarked) [Example 488, N-ethyl-5-fluoro-2-{6-[(1-{6-[4-(2-hydroxyethyl)piperazin-1-yl]-2-methylhexan-3-yl}azacyclobutan-3-yl)oxy]-4-methylpyrrolo[1,2-a]pyrazin-8-yl}-N-(isopropyl)benzamide]	3.4	19		
CCN(C(=O)c1cc(F)ccc1-c1cc(C2CN([C@H](CCCN3CCN(CCC#N)CC3)C(C)C)C2)cn2c(C)ncc12)C(C)C [Example 489]	2	5.9		
CCN(C(=O)c1cc(F)ccc1-c1cc(C2CN([C@H](CCCN3CCN(C(=O)C4(C#N)COC4)CC3)C(C)C)C2)cn2c(C)ncc12)C(C)C [Example 495]	2.4	27		
CCN(C(=O)c1cc(F)ccc1-c1cc(C2CN([C@H](CCCN3CCN(CCOC)CC3)C(C)C)C2)cn2c(C)ncc12)C(C)C [Example 497]	0.9	41		
